Measurements published in patent US20250049930A1, “PROTAC MOLECULES TARGETING FOXP3 AND USES THEREOF” (CEDARS-SINAI MEDICAL CENTER, priority 2022, published 2025).
Residues, ends and D or L forms follow the SMILES beside them. *: point of attachment. X1 = O=C1CCC(N2C(=O)c3cccc(*)c3C2=O)C(=O)N1; PEG4 = NCCOCCOCCOCCOCCC(=O)O

How the values were obtained:
Tregs = test: Treg immunosuppression co-culture assay with mouse splenocytes (CFSE dilution, TNFα); format: cell-based; settings: mouse CD4+ splenocytes treated 72 hours, co-cultured with effector cells stimulated with αCD3 and αCD28
Method: FIGS. 3A-3D depict that PF decreased the immunosuppressive function of Tregs in vitro and decreased tumor growth in mice. To treat Tregs, CD4+ splenocytes were isolated and treated with PF or various controls for 72 hours. To assess the immunosuppressive effects of these cells, they were washed and co-cultured with effector cells, which were stimulated with antibodies to CD3 and CD28 in vitro (FIGS. 3A-3C). CD8 proliferation was measured using a CFSE dilution assay. To assess CD8+ effector cells, CD4 negative splenocytes were CFSE labeled and CFSE dilution was measured in CD8+ cells by flow cytometry (FIG. 3A). In the same experiment, CD8+ lymphocyte activation was assessed by measuring TNFα (FIG. 3B). Also, CD4+ lymphocyte activation was assessed by measuring TNFα (FIG. 3C). Mice tumors were established by injection RENCA cells subcutaneously in the flank of Balb/C mice (5-7 mice per group) (FIG. 3D). 10 days later, mice were treated i.p., twice a week throughout the experiment, with the indicated drugs and tumor growth was monitored. Pomalidomide conjugated to (PEG)4 (PROTAC-control; PC) and P60 served as controls. […]
To assess T cell activation in vitro, single suspension of mouse splenocytes were separated into CD4 positive (+) and negative (−) cells using EasySep Mouse CD4+ selection kit (STEMCELL technologies, Vancouver, BC, Canada). […] To study effector cell function, CD4+ and CD4− cells were cocultured (1.2 ratio) with treated-Treg and stimulated with αCD3 (10 μg/mL) and αCD28 (5 μg/mL) for 3 days; percent of CD4+ or CD8+ cells staining for intracellular FoxP3, CFSE, or TNFα were assessed by flow cytometry (LSR II, BD Biosciences, San Jose, CA 95131).
Tregs play a central role in suppressing and regulating the immune response. […] CD8 proliferation was measured using a CFSE dilution assay. To assess CD8+ effector cells, CD4 negative splenocytes were CFSE labeled and CFSE dilution was measured in CD8+ cells by flow cytometry (FIG. 3A). CD8+ lymphocyte activation was assessed by measuring TNFα (FIG. 3B). Also, CD4+ lymphocyte activation was assessed by measuring TNFα (FIG. 3C). […]

[1] = biological target: ternary complex consisting of cereblon, FoxP3, and P-FoxP3 (Homo sapiens, UniProt Q96SW2+Q9BZS1); test: SPR assay, ternary complex cooperativity; format: binding
Method: The SPR assay for ternary complex cooperativity was performed by BOC Sciences who provided the following details: Various concentrations of cereblon were dissolved in water and manually printed onto the 47 nm gold-coated PlexArray Nanocapture Sensor Chip (Plexera Bioscience, Seattle, WA) at 40% humidity. Each concentration was printed in replicate, and each spot contained […] of sample solution. The chip was incubated overnight in 80% humidity at 4° C., and rinsed with 10×PBST for 10 minutes, 1×PBST for 10 minutes, and deionized water twice for 10 minutes. The chip was then blocked with 5% non-fat milk in water overnight, washed as before, and then dried under a stream of nitrogen.
SPR imaging measurements were performed with PlexAray HT (Plexera Bioscience, Seattle, WA, US). Buffers and samples were injected by a non-pulsatile piston pump into the 30 μL flow cell. […] The signal changes after binding and washing (in AU) are recorded as the assay value. Selected protein-grafted regions in the SPR images were analyzed, and the average reflectivity variations of the chosen areas were plotted as a function of time. Real-time binding signals were recorded and analyzed by Data Analysis Module (DAM, Plexera Bioscience, Seattle, WA, US). […]

Chain of ternary complex consisting of cereblon, FoxP3, and P-FoxP3 (Q96SW2 whole entry): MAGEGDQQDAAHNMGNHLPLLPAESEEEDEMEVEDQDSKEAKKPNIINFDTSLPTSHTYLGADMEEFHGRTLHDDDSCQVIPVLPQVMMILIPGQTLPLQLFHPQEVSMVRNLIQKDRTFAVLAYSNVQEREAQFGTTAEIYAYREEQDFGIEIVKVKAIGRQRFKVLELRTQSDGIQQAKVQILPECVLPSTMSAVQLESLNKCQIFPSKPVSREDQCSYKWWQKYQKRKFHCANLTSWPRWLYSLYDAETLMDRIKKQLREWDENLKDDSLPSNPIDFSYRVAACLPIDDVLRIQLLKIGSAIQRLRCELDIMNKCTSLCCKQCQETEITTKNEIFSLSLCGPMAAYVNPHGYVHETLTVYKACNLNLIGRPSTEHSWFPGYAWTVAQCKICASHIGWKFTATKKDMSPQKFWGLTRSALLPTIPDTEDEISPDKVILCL
Chain of ternary complex consisting of cereblon, FoxP3, and P-FoxP3 (Q9BZS1 whole entry): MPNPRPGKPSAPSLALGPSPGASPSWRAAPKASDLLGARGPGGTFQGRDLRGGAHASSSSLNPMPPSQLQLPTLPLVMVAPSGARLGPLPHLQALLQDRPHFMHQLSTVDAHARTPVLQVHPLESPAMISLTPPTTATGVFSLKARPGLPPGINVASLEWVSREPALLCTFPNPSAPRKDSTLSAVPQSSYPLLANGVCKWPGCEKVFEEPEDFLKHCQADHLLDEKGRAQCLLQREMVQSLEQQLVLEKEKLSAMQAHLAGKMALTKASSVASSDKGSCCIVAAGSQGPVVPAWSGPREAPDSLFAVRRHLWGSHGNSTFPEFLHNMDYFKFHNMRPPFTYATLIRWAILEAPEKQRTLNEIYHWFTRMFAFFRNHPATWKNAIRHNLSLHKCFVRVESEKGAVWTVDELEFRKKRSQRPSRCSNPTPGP

Structure (SMILES): CSCC[C@H](NC(=O)[C@H](C)NC(=O)[C@H](Cc1ccccc1)NC(=O)[C@H](Cc1ccccc1)NC(=O)[C@@H]1CCCN1C(=O)[C@H](Cc1c[nH]c2ccccc12)NC(=O)[C@H](CCSC)NC(=O)[C@H](CCCCN)NC(=O)[C@H](CCCNC(=N)N)NC(=O)[C@H](Cc1ccccc1)NC(=O)[C@H](CO)NC(=O)[C@H](CCC(N)=O)NC(=O)[C@H](Cc1ccccc1)NC(=O)[C@H](CC(=O)O)NC(=O)[C@H](CCCNC(=N)N)NC(=O)CCOCCOCCOCCOCCNc1cccc2c1C(=O)N(C1CCC(=O)NC1=O)C2=O)C(=O)O (some centres unmarked) [PF, Pomalidomide-PEG4-RDFQSFRKMWPFFAM] ({X1-PEG4}-RDFQSFRKMWPFFAM-OH)
- suppression of CD4+ effector lymphocyte activation by treated CD4+ cells (TNFα) (Tregs): less capable of suppressing the activation of CD4+ effector lymphocytes
- suppression of CD8+ lymphocyte activation by treated CD4+ lymphocytes (TNFα expression) (Tregs): less capable of suppressing
- suppression of CD8+ lymphocyte proliferation by treated CD4+ lymphocytes (CFSE dilution) (Tregs): less capable of suppressing
- Kd ([1]; SPR, cereblon printed on chip, 25° C., complex of cereblon, P-FoxP3 and recombinant FoxP3, read-out: Equilibrium dissociation constant, KD ternary): 434 nM
- Cooperativity, a=KD binary/KD ternary ([1]; a>1 positively cooperative, a=1 non-cooperative, a<1 negatively cooperative): 2.27
